Data as given in US20150239831A1, “INHIBITORS OF CENTRAL NERVOUS SYSTEM VASOACTIVE INHIBITORY PEPTIDE RECEPTOR 2” (The Trustees Of Columbia University In The City Of New York, priority 2012, published 2015).

Key:
Type in all cases: cell-based
Design in all cases: expressed in transfected cells; host or cells: HEK293 cells transfected with VIPR2 in pCDNA3.1 (as described)
VIPR2 [1] = target: T1, VIPR2 (Homo sapiens, UniProt P41587); assay: Inhibition of VIP-induced cAMP elevation (% Activity cAMP)
T1 sequence (P41587 24-438): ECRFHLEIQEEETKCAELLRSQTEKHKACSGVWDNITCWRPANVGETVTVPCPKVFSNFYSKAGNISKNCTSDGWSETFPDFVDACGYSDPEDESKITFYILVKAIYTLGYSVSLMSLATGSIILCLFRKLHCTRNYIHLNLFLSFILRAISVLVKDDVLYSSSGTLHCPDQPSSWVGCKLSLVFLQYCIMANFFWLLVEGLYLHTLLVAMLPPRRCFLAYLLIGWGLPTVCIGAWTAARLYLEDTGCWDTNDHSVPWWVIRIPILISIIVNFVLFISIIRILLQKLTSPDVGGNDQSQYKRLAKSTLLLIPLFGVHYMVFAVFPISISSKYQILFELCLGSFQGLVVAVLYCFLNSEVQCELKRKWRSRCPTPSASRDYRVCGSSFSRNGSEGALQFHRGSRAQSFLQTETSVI
Method in brief: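 HEK293 cells stably transfected with human VIPR2 were incubated with inhibitor and VIP for 30 min, then cAMP was detected by HTRF after at least 1 h at room temperature. The 665/620 nm ratio ×10,000 was calculated.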

VIPR2 [2] = target: T1, VIPR2; assay: Inhibition of VIP-induced β-arrestin recruitment (% Activity Arrestin)
Method in brief: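 Read-out is β-gal fragment complementation (luminescence) between ProLink-hVIPR2 and EA-β-arrestin2 in transiently transfected HEK293 cells. Cells rested overnight, then exposed to inhibitor 2 h at 37 °C before detection reagent (5 min–1 h, room temperature); values are % activity against VIP-driven recruitment.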

VIPR2 [3] = target: T1, VIPR2; assay: % Activity: inhibition of VIP-induced cAMP elevation and β-arrestin recruitment (Table 2)
Method in brief: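 Recruitment of β-arrestin measured by β-gal fragment complementation luminescence in HEK293 cells co-expressing VIPR2-ProLink and β-arrestin2-EA after 2 h compound at 37° C. VIP-driven cAMP rise in stable hVIPR2 HEK293 cells measured by HTRF after 30 min with inhibitor and VIP.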

Compound | inhibition at 0.5 µM (VIPR2 [1]; Batch 1) [%] | inhibition at 1 µM (VIPR2 [1]; Batch 1) [%] | inhibition at 5 µM (VIPR2 [1]; Batch 1) [%] | inhibition at 0.5 µM (VIPR2 [2]; Batch 1) [%] | inhibition at 1 µM (VIPR2 [2]; Batch 1) [%] | inhibition at 5 µM (VIPR2 [2]; Batch 1) [%] | % Activity (VIPR2 [3]) [%] | inhibition at 0.5 µM (VIPR2 [1]; Batch 2) [%] | inhibition at 1 µM (VIPR2 [1]; Batch 2) [%] | inhibition at 5 µM (VIPR2 [1]; Batch 2) [%] | inhibition at 0.5 µM (VIPR2 [2]; Batch 2) [%] | inhibition at 1 µM (VIPR2 [2]; Batch 2) [%] | inhibition at 5 µM (VIPR2 [2]; Batch 2) [%] | inhibition at 0.5 µM (VIPR2 [1]; Batch 3) [%] | inhibition at 1 µM (VIPR2 [1]; Batch 3) [%] | inhibition at 5 µM (VIPR2 [1]; Batch 3) [%] | inhibition at 0.5 µM (VIPR2 [2]; Batch 3) [%] | inhibition at 1 µM (VIPR2 [2]; Batch 3) [%] | inhibition at 5 µM (VIPR2 [2]; Batch 3) [%]
O=C(NC[C@@H](O)C[C@@H](Cc1ccccc1)C(=O)N[C@H]1c2ccccc2C[C@H]1O)c1cccc([N+](=O)[O-])c1 [M] | 11.8 | 11 | 13.5 | 19.9 | 7.4 | -4 | 4.75 |  |  |  |  |  |  |  |  |  |  |  | 
O=C(NC1CCCC1)[C@H](Cc1ccccc1)C[C@H](O)CNS(=O)(=O)c1ccc([N+](=O)[O-])cc1 [Compound B1A] |  |  |  |  |  |  | 6.95 | -2.1 | -4.9 | 4.7 | 17.4 | 17.1 | 9.2 |  |  |  |  |  | 
O=C(NC[C@@H](O)C[C@@H](Cc1ccccc1)C(=O)N[C@H]1c2ccccc2C[C@H]1O)c1ccncc1 [Compound A18] | 14.2 | 19.2 | 21 | -39.7 | 10.9 | -8.8 | 6.1 |  |  |  |  |  |  |  |  |  |  |  | 
O=C(NC1CCCCCC1)[C@H](Cc1ccccc1)C[C@H](O)CNS(=O)(=O)c1ccc([N+](=O)[O-])cc1 [Compound B5A] |  |  |  |  |  |  | 5.25 | 1.7 | 5.6 | 12.9 | -19.2 | -5.4 | -2.4 |  |  |  |  |  | 
O=C(NC[C@@H](O)C[C@@H](Cc1ccccc1)C(=O)N[C@H]1c2ccccc2C[C@H]1O)C1CCCCCC1 [Compound A8] | 18.4 | 17 | 17 | 24.4 | 16.4 | 10.5 | 13.75 |  |  |  |  |  |  |  |  |  |  |  | 
C=Cc1ccc(C(=O)NC[C@@H](O)C[C@@H](Cc2ccccc2)C(=O)N[C@H]2c3ccccc3C[C@H]2O)cc1 [Compound A24] | 16.1 | 16.5 | 23.8 | 2.3 | 47.5 | 1.8 | 12.8 |  |  |  |  |  |  |  |  |  |  |  | 
O=C(NC[C@@H](O)C[C@@H](Cc1ccccc1)C(=O)N[C@H]1c2ccccc2C[C@H]1O)c1cccc(CCl)c1 [O] | 0.5 | 2.3 | 15.1 | -8.1 | 5.7 | -10.3 | 2.4 |  |  |  |  |  |  |  |  |  |  |  | 
CCCCNC(=O)[C@@H](Cc1ccccc1)C[C@H](O)CNS(=O)(=O)c1ccc([N+](=O)[O-])cc1 [Compound B7B] |  |  |  |  |  |  | 13.45 | -1.5 | 0.6 | 6.2 | 26.8 | 20.4 | 20.7 |  |  |  |  |  | 
C[C@H](CC(C)(C)C)NC(=O)[C@@H](Cc1ccccc1)C[C@H](O)CNS(=O)(=O)c1ccc([N+](=O)[O-])cc1 [Compound B10B] |  |  |  |  |  |  | 13.8000 | 6.5 | 19.6 | 7.4 | 36.8 | 27.9 | 20.2 |  |  |  |  |  | 
O=C(NC[C@@H](O)C[C@@H](Cc1ccccc1)C(=O)N[C@H]1c2ccccc2C[C@H]1O)c1ccc2ccccc2c1 [B] | 13.2 | 16.3 | 23.5 | -2.9 | 11.1 | 9.7 | 16.6 |  |  |  |  |  |  |  |  |  |  |  | 
O=C(CCl)NC[C@@H](O)C[C@@H](Cc1ccccc1)C(=O)N[C@H]1c2ccccc2C[C@H]1O [Compound A7] | 18.4 | 19.2 | 15.6 | 9.9 | 23.7 | 17.5 | 16.55 |  |  |  |  |  |  |  |  |  |  |  | 
CCNC(=O)[C@@H](Cc1ccccc1)C[C@H](O)CNS(=O)(=O)c1ccc([N+](=O)[O-])cc1 [Compound B16B] |  |  |  |  |  |  | −14.9 | -13.2 | -0.9 | -22.2 | -10 | 6 | -7.6 |  |  |  |  |  | 
COc1cc(C(=O)NC[C@@H](O)C[C@@H](Cc2ccccc2)C(=O)N[C@H]2c3ccccc3C[C@H]2O)cc(OC)c1OC [H] | 15.6 | 20 | 9.3 | 29.6 | 37.2 | 18 | 13.65 |  |  |  |  |  |  |  |  |  |  |  | 
O=C(NC[C@@H](O)C[C@@H](Cc1ccccc1)C(=O)N[C@H]1c2ccccc2C[C@H]1O)c1c(Cl)cc(Cl)cc1Cl [D] | 17.6 | 14.8 | 12.3 | 23.9 | 25.3 | 31.5 | 21.9 |  |  |  |  |  |  |  |  |  |  |  | 
NC(=O)[C@@H](Cc1ccccc1)C[C@H](O)CNS(=O)(=O)c1ccc([N+](=O)[O-])cc1 [Compound B12B] |  |  |  |  |  |  | 8.35 | 14.6 | 12.6 | 9.7 | 3.5 | -9.8 | 7 |  |  |  |  |  | 

Now from value to compound:

inhibition at 0.5 µM (VIPR2 [1]; Batch 1) [%] | inhibition at 1 µM (VIPR2 [1]; Batch 1) [%] | inhibition at 5 µM (VIPR2 [1]; Batch 1) [%] | inhibition at 0.5 µM (VIPR2 [2]; Batch 1) [%] | inhibition at 1 µM (VIPR2 [2]; Batch 1) [%] | inhibition at 5 µM (VIPR2 [2]; Batch 1) [%] | % Activity (VIPR2 [3]) [%] | inhibition at 0.5 µM (VIPR2 [1]; Batch 2) [%] | inhibition at 1 µM (VIPR2 [1]; Batch 2) [%] | inhibition at 5 µM (VIPR2 [1]; Batch 2) [%] | inhibition at 0.5 µM (VIPR2 [2]; Batch 2) [%] | inhibition at 1 µM (VIPR2 [2]; Batch 2) [%] | inhibition at 5 µM (VIPR2 [2]; Batch 2) [%] | inhibition at 0.5 µM (VIPR2 [1]; Batch 3) [%] | inhibition at 1 µM (VIPR2 [1]; Batch 3) [%] | inhibition at 5 µM (VIPR2 [1]; Batch 3) [%] | inhibition at 0.5 µM (VIPR2 [2]; Batch 3) [%] | inhibition at 1 µM (VIPR2 [2]; Batch 3) [%] | inhibition at 5 µM (VIPR2 [2]; Batch 3) [%] | Compound
 |  |  |  |  |  | 15.6 |  |  |  |  |  |  | -2.9 | 11.3 | 24.5 | 4.1 | 2.6 | 6.7 | CCCNc1ccc(S(=O)(=O)NC[C@@H](O)C[C@@H](Cc2ccccc2)C(=O)N[C@H]2c3ccccc3C[C@H]2O)cc1 [Compound X084]
 |  |  |  |  |  | 0.85 | 2.1 | 4.4 | 6.2 | -8.4 | -17.8 | -4.5 |  |  |  |  |  |  | O=C([C@H](Cc1ccccc1)C[C@H](O)CNS(=O)(=O)c1ccc([N+](=O)[O-])cc1)N1CCC(CO)CC1 [Compound B19]
 |  |  |  |  |  | 15.2 |  |  |  |  |  |  | 10.8 | 19.1 | 19.1 | 2.8 | 2.3 | 11.3 | CCCCCNc1ccc(S(=O)(=O)NC[C@@H](O)C[C@@H](Cc2ccccc2)C(=O)N[C@H]2c3ccccc3C[C@H]2O)cc1 [Compound X087]
 |  |  |  |  |  | −1.5 |  |  |  |  |  |  | -0.9 | 2 | -7.3 | -0.8 | 1.1 | 4.3 | CNc1ccc(S(=O)(=O)NC[C@@H](O)C[C@@H](Cc2ccccc2)C(=O)N[C@H]2c3ccccc3C[C@H]2O)cc1 [Compound X082]
 |  |  |  |  |  | 16.2 |  |  |  |  |  |  | 17.2 | 18.2 | 20.6 | 8.1 | -2 | 11.8 | CC(C)Nc1ccc(S(=O)(=O)NC[C@@H](O)C[C@@H](Cc2ccccc2)C(=O)N[C@H]2c3ccccc3C[C@H]2O)cc1 [Compound X085]
 |  |  |  |  |  | 13.1 |  |  |  |  |  |  | 7.4 | 6.4 | 26 | 6.4 | -1.8 | 0.2 | O=C(O)c1ccc(S(=O)(=O)NC[C@@H](O)C[C@@H](Cc2ccccc2)C(=O)N[C@H]2c3ccccc3C[C@H]2O)cc1 [Compound X094]
 |  |  |  |  |  | 20 |  |  |  |  |  |  | 8.4 | 18.6 | 33.3 | -5.6 | -5.5 | 6.7 | Nc1ccc(S(=O)(=O)NC[C@@H](O)C[C@@H](Cc2ccccc2)C(=O)N[C@H]2c3ccccc3C[C@H]2O)cc1 [Compound X081]
 |  |  |  |  |  | 1.95 |  |  |  |  |  |  | -8.7 | -8.7 | -5.8 | 0.5 | 0.2 | 9.7 | CC(=O)Nc1ccc(S(=O)(=O)NC[C@H](C[C@@H](Cc2ccccc2)C(=O)N[C@H]2c3ccccc3C[C@H]2OC(C)=O)OC(C)=O)cc1 [Compound X090]
